The record followed here is US7612200B2, “Inhibitors of protein kinases” (Locus Pharmaceuticals, Inc., priority 2004, dated 2009).

The structures appear in SMILES notation.

Common to all, as to type: biochemical
For one assay, the target named is Src (Homo sapiens, UniProt P12931). The experiment in a line: Kinase activity at ATP Km,app, Src. The settings on record: 40 min, compound 2 μM. The protocol:
cSRC Kinase Activity: In a final reaction volume of 25 μl, cSRC (h) (5-'0 mU) is incubated with 8 mM MOPS pH 7.0, 0.2 mM EDTA, 250 μM KVEKIGEGTYGVVYK (Cdc2 peptide), 10 mM MgAcetate and [γ-^33P-ATP] (specific activity approx. 500 cpm/pmol, concentratin as required). The reaction is initiated by the addition of the MgATP mix. After incubation for 40 minutes at room temperature, the reaction is stopped by the addition of 5 μl of a 3% phosphoric acid solution. 10 μl of the reaction is then spotted onto a P30 filtermat and washed three times for 5 minutes in 75 mM phosphoric acid and once in methanol prior to drying and scintillation counting.

A further assay concerns the target T1, EphB4 (Homo sapiens, UniProt P54760).
T1 sequence (P54760 16-987): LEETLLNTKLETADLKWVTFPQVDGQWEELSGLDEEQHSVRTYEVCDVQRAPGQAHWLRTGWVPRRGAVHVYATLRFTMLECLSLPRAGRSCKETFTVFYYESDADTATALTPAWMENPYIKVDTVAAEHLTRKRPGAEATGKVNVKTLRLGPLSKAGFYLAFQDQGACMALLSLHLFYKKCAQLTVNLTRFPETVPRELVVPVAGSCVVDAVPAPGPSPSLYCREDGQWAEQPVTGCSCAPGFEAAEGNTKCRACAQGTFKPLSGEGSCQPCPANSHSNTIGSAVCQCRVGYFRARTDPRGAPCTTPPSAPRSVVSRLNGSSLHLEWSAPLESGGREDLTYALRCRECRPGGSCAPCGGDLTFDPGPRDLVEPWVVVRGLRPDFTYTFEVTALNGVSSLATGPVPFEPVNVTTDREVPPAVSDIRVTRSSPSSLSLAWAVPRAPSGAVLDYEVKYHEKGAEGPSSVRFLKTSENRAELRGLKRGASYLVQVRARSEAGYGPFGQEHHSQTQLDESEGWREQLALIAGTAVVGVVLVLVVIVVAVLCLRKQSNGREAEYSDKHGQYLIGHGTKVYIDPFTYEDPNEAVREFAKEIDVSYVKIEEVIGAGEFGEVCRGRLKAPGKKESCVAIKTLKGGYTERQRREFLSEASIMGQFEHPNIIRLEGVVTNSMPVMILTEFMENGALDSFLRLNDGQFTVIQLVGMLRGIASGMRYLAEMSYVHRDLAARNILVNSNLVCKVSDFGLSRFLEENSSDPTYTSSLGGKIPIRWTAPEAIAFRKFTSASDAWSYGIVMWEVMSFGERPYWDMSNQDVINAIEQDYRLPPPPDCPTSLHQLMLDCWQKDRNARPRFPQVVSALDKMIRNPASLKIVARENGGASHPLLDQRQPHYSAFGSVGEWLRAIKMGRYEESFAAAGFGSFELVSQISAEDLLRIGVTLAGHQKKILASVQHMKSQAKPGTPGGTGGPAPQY
The experiment in a line: Kinase activity at ATP Km,app, EphB4. Particulars: 40 min, compound 2 μM. On the procedure:
EphB4 Kinase Activity: In a final reaction volume of 25 μl, EphB4 (h) (5-10 mU) is incubated with 8 mM MOPS pH 7.0, 0.2 mM EDTA, 10 mM MnCl2, 0.1 mg/ml poly(Glue, Tyr) 4:1, 10 mM MgAcetate and [γ-^33P-ATP] (specific activity approx. 500 cpm/pmol, concentration as required). The reaction is initiated by the addition of the MgATP mix. After incubatin for 40 minutes at room temperature, the reaction is stopped by the addition of 5 μl of a 3% phosphoric acid solution. 10 μl of the reaction is then spotted onto a Filtermat A and washed three times for 5 minutes in 75 mM phosphoric acid and once in methanol prior to drying and scintillating counting.

The target of a further assay is T2, IRAK4 (Homo sapiens, UniProt Q9NWZ3).
T2 sequence (Q9NWZ3 1-460): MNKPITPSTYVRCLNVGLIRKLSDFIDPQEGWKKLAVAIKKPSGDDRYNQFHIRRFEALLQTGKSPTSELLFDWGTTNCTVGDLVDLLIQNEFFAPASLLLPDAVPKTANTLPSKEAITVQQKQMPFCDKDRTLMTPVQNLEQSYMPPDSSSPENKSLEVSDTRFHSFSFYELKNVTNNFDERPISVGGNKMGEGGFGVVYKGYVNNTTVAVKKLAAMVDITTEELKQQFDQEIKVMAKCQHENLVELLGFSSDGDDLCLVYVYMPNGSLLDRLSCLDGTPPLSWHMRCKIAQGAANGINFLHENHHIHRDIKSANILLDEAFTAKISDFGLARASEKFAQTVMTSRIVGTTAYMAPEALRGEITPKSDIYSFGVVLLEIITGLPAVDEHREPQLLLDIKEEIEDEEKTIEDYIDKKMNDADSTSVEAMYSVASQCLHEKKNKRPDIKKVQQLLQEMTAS
As to the kind of experiment: Kinase activity at ATP Km,app, IRAK4. Particulars: compound 2 μM.

Sequence of Src (P12931 whole entry): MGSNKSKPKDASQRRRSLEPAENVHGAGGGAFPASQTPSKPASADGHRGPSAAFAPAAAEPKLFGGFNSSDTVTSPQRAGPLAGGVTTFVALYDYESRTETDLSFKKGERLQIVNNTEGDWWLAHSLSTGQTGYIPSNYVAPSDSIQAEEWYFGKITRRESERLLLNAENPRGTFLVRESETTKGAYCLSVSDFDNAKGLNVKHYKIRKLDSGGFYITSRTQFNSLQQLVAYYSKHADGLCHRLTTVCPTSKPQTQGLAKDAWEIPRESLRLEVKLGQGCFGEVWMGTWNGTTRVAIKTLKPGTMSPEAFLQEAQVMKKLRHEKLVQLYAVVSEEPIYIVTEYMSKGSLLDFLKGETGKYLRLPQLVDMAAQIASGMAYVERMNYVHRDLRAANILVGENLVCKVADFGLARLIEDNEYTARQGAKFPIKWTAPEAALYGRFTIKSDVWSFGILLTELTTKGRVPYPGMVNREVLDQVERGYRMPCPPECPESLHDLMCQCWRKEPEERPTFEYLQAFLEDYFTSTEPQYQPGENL

Turning to `CC(C)(C)c1cc(C(=O)N2CCNC(=O)C2)c(NC(=O)Nc2ccc(Oc3ccncc3)cc2)s1` [Example 2, 1-(5-tert-Butyl-3-(3-oxo-piperazine-1-carbonyl)thiophen-2-yl)-3-(4-(pyridin-4-yloxy)phenyl)urea], the inhibition at 2 µM fell in the range of 0 to 25% against Src and 76 to 100% on EphB4. Besides, the “% Inhibition at ATP Km,app” value on IRAK4 is 0-25%.
For the compound `CC(C)(C)c1cc(C(=O)N2CCNS(=O)(=O)CC2)c(NC(=O)Nc2ccc(Oc3ccncc3)cc2)s1` [Example 1, 1-(5-tert-Butyl-3-(1,1-dioxo-1λ^6-[1,2,5]thiadiazepane-5-carbonyl)thiophen-2-yl)-3-(4-(pyridin-4-yloxy)phenyl)urea], the figures for the inhibition at 2 µM on Src and against EphB4 were 0 to 25% and 76 to 100%, respectively. Also, the “% Inhibition at ATP Km,app” value at IRAK4 was 0-25%.
On to `CC(C)(C)c1cc(C(=O)N2CCNC(=O)CC2)c(NC(=O)Nc2ccc(Oc3ccncc3)cc2)s1` [Example 4, 1-(5-tert-Butyl-3-(5-oxo-[1,4]diazepane-1-carbonyl)thiophen-2-yl)-3-(4-(pyridin-4-yloxy)phenyl)urea], for which the inhibition at 2 µM is 0 to 25% on Src and 76 to 100% against EphB4. In addition, the “% Inhibition at ATP Km,app” value at IRAK4 is recorded as 0-25%.
